From patent US20050014788A1, “Piperidine derivatives and their use as modulators of chemokine receptor activity (especially ccr5)” (priority 2001, published 2005) come the findings set out here.

Structures can show the parent of a compound that is named as a salt.

recombinant human CCR5 receptor, sequence (P51681 whole entry): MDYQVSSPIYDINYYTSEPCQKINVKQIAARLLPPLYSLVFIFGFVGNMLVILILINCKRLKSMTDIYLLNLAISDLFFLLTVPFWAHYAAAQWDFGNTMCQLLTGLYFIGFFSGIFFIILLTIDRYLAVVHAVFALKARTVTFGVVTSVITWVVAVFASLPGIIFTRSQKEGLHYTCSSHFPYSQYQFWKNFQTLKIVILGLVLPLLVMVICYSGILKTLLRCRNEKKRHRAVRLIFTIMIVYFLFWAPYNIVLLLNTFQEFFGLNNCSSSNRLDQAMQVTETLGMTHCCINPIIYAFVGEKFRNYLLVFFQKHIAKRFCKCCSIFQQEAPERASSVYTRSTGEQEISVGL

The first experiment has as its target recombinant human CCR5 receptor (Homo sapiens, UniProt P51681). Description: MIP-1α radioligand binding assay (scintillation proximity), CHO cell membranes. As to conditions: Pic50, negative log (base 10) of IC50 (M); displacement of 0.1 nM iodinated MIP-1α; CHO membranes with recombinant human CCR5; average if tested more than once. Here is the method:
The ability of compounds to inhibit the binding of MIP-1 α was assessed by an in vitro radioligand binding assay. Membranes were prepared from Chinese hamster ovary cells which expressed the recombinant human CCR5 receptor. These membranes were incubated with 0.1 nM iodinated MIP-1α, scintillation proximity beads and various concentrations of the compounds of the invention in 96-well plates. The amount of iodinated MIP-1α bound to the receptor was determined by scintillation counting.
In Table II the results are presented as Pic50 values. […] (that is 1×10^−6 M) gives a Pic50 of 6.
Take `CCN(C(=O)Cc1ccc(S(C)(=O)=O)cc1)C1CCN(CC[C@@H](c2ccccc2)c2ccc(S(C)(=O)=O)cc2)CC1` [Compound No. 50, (S)-N-[1-{3-phenyl-3-(4-methanesulfonylphenyl)propyl}-4-piperidinyl]-N-ethyl-4 methanesulfonylphenylacetamide]: the IC50 is 8.13e-10 M. With `CCN(C(=O)Cc1ccc(S(C)(=O)=O)cc1)C1CCN(CC[C@H](c2ccc(S(C)(=O)=O)cc2)c2ccc(F)c(F)c2)CC1` [Compound No. 54, (R)-N-[1-{3-(3,4-fluorophenyl)-3-(4-methanesulfonylphenyl)propyl}-4-piperidinyl]-N-ethyl-4-methanesulfonylphenylacetamide hydrochloride], the IC50 is 2.14e-08 M. Still for that read-out and setting: under `CCN(C(=O)Cc1ccc(S(C)(=O)=O)cc1)C1CCN(CC[C@H](c2ccc(S(C)(=O)=O)cc2)c2cccc(F)c2)CC1` [compound 51] stands 3.72e-10 M.

Still in this experiment, the particulars now being: negative log (base 10) of IC50 (M); displacement of 0.1 nM iodinated MIP-1α; CHO membranes with recombinant human CCR5; average if tested more than once.
`CCN(C(=O)Cc1ccc(S(C)(=O)=O)cc1)C1CCN(CCC(c2ccc(NC(=O)OC(C)(C)C)cc2)c2cccc(F)c2)CC1` (stereo not shown) [Compound No. 43, N-[1-(3-[3-fluorophenyl]-3-[4-Boc-aminophenyl]propyl)-piperidin-4-yl]-N-ethyl-4-methanesulfonylphenylacetamide]: the Pic50 was determined as 7.05.

The same experiment, now with this note: negative log (base 10) of IC50 (M); displacement of 0.1 nM iodinated MIP-1α; CHO membranes with recombinant human CCR5; average if tested more than once; read-out: Pic50 (converted).
In the case of `CCN(C(=O)Cc1ccc(S(C)(=O)=O)cc1)C1CCN(CCC(c2ccccc2)c2ccc(SC)cc2)CC1` (stereo not shown) [Compound No. 41, N-[1-(3-phenyl-3-[4-methanethiophenyl]propyl)-piperidin-4-yl]-N-ethyl-4-methanesulfonylphenylacetamide], the IC50 is 1.17e-08 M. For the compound `CCN(C(=O)Cc1ccc(S(C)(=O)=O)cc1)C1CCN(CCC(c2ccc(N)cc2)c2cccc(F)c2)CC1` (stereo not shown) [Compound No. 44, N-[1-(3-[3-fluorophenyl]-3-[4-aminophenyl]propyl)-piperidin-4-yl]-N-ethyl-4-methanesulfonylphenylacetamide hydrochloride], the IC50 is 1.05e-07 M. Turning to `CCN(C(=O)Cc1ccc(S(C)(=O)=O)cc1)C1CCN(CCC(c2ccc(NS(C)(=O)=O)cc2)c2cccc(F)c2)CC1` (stereo not shown) [Compound No. 49], the IC50 is 6.17e-09 M. On to `CCN(C(=O)Cc1ccc(S(C)(=O)=O)cc1)C1CCN(CCC(c2ccccc2)c2ccc(NS(=O)(=O)c3ccccc3)cc2)CC1` (stereo not shown) [compound 28], for which the IC50 was 8.51e-07 M.

As for `CCN(C(=O)Cc1ccc(S(C)(=O)=O)cc1)C1CCN(CCC(c2ccccc2)c2ccc(NC(=O)NC(C)C)cc2)CC1` (stereo not shown) [compound 42], the IC50 is 1.32e-08 M. Regarding `CCN(C(=O)Cc1ccc(S(C)(=O)=O)cc1)C1CCN(CCC(c2ccc(NC(C)=O)cc2)c2cccc(F)c2)CC1` (stereo not shown) [compound 45], the IC50 was 3.63e-09 M. The same measure, in the same setting: under `CCN(C(=O)Cc1ccc(S(C)(=O)=O)cc1)C1CCN(CCC(c2ccc(NS(C)(=O)=O)cc2)c2cccc(F)c2)CC1` (stereo not shown) [compound 46] stands 9.12e-09 M; under `CCN(C(=O)Cc1ccc(S(C)(=O)=O)cc1)C1CCN(CCC(c2ccc(NC(=O)c3ccc(S(C)(=O)=O)cc3)cc2)c2cccc(F)c2)CC1` (stereo not shown) [compound 47], 3.47e-08 M. Consider `CCN(C(=O)Cc1ccc(S(C)(=O)=O)cc1)C1CCN(CCC(c2ccccc2)c2ccc([S+](C)[O-])cc2)CC1` (stereo not shown) [compound 75], for which the IC50 is 1.38e-08 M.
